Data from US8067460B2 (The Regents of the University of Califonia, priority 2004, dated 2011).
Read-outs that look alike come from different tables or passages of the source. No end group written: not given here.

Legend:
Kv1.3 = Kv1.3 (Mus musculus, UniProt P16390); assay: Inhibitory effect on K+ channels (Appendix A): Kv1.3; type: cell-based; conditions: for nH (Kv1.3): Hill coefficient printed beside the Kv1.3 EC50; for selectivity for Kv1.3 channels over Kv1.5 channels: Kv1.3 versus Kv1.5, from Appendix A
Kv1.5 = Kv1.5 (Homo sapiens, UniProt P22460); assay: Inhibitory effect on K+ channels (Appendix A): Kv1.5; type: cell-based; conditions: for nH (Kv1.5): Hill coefficient printed beside the Kv1.5 EC50
[1] = system: delayed-type hypersensitivity (DTH) response; conditions: mini-pigs, cited from earlier work
IKCa1 = IKCa1 (Homo sapiens, UniProt O15554); assay: Inhibitory effect on K+ channels (Appendix A): IKCa1; type: cell-based
Kv1.7 = Kv1.7 (Homo sapiens, UniProt Q96RP8); assay: Inhibitory effect on K+ channels (Appendix A): Kv1.7; type: cell-based
BK = BK (Homo sapiens, UniProt Q12791); assay: Inhibitory effect on K+ channels (Appendix A): BK; type: cell-based
Kv1.4 = Kv1.4 (Homo sapiens, UniProt P22459); assay: Inhibitory effect on K+ channels (Appendix A): Kv1.4; type: cell-based
Kv1.1 = Kv1.1 (Homo sapiens, UniProt Q09470); assay: Inhibitory effect on K+ channels (Appendix A): Kv1.1; type: cell-based
[2] = system: class-switched (IgD−CD27+) memory B cells; conditions: cited from earlier work

Chain of Kv1.1 (Q09470 whole entry): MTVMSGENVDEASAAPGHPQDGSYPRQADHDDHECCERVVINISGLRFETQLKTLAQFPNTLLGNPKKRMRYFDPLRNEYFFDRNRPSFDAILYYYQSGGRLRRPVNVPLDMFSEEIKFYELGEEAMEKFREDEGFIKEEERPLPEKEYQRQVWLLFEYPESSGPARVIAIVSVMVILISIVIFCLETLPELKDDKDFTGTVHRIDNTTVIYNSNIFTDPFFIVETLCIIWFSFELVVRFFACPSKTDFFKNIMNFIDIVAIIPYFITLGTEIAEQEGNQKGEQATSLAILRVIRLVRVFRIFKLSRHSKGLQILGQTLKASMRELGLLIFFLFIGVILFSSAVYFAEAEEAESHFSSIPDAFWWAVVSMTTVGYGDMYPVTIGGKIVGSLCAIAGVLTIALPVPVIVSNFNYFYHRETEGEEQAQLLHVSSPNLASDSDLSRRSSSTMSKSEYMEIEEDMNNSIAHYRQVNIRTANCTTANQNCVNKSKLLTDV
Chain of Kv1.3 (P16390 whole entry): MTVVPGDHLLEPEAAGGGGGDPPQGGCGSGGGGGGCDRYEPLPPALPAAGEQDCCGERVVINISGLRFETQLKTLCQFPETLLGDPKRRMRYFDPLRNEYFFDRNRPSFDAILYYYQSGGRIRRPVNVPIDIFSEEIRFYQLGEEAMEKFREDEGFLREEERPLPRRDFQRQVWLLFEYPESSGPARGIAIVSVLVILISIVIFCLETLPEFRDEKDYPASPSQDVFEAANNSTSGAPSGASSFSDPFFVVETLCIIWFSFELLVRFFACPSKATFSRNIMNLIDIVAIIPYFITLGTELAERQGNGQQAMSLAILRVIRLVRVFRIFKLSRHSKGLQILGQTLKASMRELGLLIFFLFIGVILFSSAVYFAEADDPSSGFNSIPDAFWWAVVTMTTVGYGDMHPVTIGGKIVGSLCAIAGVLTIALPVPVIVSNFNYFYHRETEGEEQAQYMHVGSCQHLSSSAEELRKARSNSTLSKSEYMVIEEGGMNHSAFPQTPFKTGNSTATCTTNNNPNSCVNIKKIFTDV
Chain of Kv1.5 (P22460 whole entry): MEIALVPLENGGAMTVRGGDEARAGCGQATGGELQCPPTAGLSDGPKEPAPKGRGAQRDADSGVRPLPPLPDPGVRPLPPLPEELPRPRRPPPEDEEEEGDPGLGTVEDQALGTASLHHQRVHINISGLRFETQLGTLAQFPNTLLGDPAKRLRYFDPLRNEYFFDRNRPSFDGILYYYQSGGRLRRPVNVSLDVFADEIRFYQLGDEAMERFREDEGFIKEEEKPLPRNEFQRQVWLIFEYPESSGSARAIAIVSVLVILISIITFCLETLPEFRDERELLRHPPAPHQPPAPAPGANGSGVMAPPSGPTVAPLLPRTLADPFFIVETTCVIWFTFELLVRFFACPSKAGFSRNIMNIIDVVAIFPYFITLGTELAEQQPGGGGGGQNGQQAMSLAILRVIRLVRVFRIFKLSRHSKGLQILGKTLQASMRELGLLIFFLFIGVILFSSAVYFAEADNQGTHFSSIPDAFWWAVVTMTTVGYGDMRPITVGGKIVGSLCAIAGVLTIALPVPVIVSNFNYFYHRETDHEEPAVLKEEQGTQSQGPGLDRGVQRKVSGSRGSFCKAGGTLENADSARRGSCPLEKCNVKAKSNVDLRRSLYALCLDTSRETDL
Chain of Kv1.4 (P22459 whole entry): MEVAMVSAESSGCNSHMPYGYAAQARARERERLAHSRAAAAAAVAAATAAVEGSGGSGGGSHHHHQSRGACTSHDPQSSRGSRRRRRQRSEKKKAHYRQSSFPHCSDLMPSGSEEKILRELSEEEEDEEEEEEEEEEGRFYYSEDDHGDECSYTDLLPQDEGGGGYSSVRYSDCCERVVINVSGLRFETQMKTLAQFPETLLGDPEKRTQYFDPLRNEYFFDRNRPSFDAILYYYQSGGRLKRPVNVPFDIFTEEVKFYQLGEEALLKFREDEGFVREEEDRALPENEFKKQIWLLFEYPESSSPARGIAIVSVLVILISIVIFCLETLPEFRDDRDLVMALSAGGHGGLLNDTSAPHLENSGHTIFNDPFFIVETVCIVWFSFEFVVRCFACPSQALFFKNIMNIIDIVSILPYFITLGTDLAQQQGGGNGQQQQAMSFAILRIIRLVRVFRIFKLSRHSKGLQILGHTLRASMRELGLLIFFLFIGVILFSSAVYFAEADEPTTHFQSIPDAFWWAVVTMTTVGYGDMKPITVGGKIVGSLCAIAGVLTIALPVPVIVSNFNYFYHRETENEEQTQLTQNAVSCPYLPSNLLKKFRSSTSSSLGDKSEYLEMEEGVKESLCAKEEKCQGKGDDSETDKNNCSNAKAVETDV
Chain of BK (Q12791 whole entry): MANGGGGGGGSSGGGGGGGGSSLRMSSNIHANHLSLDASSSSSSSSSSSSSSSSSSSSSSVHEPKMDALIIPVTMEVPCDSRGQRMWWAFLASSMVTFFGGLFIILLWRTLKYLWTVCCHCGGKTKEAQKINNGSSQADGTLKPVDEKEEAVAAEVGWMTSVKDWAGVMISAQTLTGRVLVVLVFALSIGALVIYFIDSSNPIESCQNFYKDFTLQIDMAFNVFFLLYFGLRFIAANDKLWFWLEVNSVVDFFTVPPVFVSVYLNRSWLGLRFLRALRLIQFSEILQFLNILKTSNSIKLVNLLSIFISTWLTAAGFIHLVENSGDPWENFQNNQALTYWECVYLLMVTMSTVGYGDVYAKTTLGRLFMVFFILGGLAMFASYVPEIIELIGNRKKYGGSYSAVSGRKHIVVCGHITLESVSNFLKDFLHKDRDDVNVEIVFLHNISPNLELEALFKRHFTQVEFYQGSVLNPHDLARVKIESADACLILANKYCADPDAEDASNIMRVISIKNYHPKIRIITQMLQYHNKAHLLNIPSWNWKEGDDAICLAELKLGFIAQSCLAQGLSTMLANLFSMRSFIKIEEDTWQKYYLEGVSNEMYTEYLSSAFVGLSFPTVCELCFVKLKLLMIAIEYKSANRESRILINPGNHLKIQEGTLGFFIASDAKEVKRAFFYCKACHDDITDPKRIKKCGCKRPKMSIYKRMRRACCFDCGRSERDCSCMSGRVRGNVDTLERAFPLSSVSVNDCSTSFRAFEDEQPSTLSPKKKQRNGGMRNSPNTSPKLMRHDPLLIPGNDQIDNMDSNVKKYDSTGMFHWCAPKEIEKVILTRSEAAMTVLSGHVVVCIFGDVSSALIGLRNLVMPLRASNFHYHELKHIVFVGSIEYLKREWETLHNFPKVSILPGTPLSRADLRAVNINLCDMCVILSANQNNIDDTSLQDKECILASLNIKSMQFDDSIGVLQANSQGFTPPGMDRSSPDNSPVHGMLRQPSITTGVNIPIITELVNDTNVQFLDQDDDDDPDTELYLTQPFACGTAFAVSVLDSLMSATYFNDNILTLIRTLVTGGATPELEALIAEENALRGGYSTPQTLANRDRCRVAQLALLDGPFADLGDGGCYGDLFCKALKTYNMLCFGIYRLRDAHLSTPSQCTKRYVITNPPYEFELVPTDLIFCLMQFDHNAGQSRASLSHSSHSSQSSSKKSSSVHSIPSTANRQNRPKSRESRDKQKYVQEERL
Chain of Kv1.7 (Q96RP8 whole entry): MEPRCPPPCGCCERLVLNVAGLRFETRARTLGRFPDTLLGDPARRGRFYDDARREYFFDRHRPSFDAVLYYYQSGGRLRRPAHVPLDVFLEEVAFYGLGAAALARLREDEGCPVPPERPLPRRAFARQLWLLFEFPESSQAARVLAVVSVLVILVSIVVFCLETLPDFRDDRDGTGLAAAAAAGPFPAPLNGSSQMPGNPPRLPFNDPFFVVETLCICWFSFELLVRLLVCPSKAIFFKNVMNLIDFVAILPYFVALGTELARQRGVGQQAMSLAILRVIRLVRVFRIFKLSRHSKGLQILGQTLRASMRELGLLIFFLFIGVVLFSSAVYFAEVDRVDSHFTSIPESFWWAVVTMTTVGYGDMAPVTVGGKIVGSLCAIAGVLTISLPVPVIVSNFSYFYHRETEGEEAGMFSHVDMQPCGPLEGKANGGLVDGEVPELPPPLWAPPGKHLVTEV

Compound	nH (Kv1.3) (Kv1.3)	EC50 (Kv1.5) [µM]	further results
O=c1ccc2c(OCCCCOc3ccc([N+](=O)[O-])cc3)c3ccoc3cc2o1 [AS78, 4-(4-[4-Nitrophenoxy]butoxy)-7H-furo[3,2-g][1]benzopyran-7-on]	1.9	0.105 ± 0.008	selectivity for Kv1.3 channels over Kv1.5 channels (Kv1.3): selective for Kv1.3 channels over Kv1.5 channels
MgTX: Kv1.3 blocker MgTX (TIINVKCTSPKQCLPPCKAQFGQSAGAKCMNGKCKCYPH; ends and bridges not checked; cysteine pairing not given here; UniProt P40755 1-39, looked up)	–	–	suppression of the primary DTH response [1]: effectively suppress; suppression of the secondary DTH response [1]: much less effective
O=c1ccc2c(OCCCCOc3cccc(C(F)(F)F)c3)c3ccoc3cc2o1	2.0	0.25	–
O=c1ccc2c(OCCCCOCc3ccc(F)cc3)c3ccoc3cc2o1	2	–	–
CCc1ccc(OCCCCCOc2c3ccoc3cc3oc(=O)ccc23)cc1	2.1	–	–
O=c1ccc2c(OCCCCOc3ccc(F)cc3)c3ccoc3cc2o1	2.3	0.012 ± 0.001	–
Cc1ccc(OCCCCOc2c3ccoc3cc3oc(=O)ccc23)c([N+](=O)[O-])c1	–	0.248 ± 0.02	–
O=c1ccc2ccc(OCCCCOc3c4ccoc4cc4oc(=O)ccc34)cc2o1	–	–	EC50 (Kv1.5; cells printed in μM): 5 µM
O=c1ccc2c(OCCCCn3cccn3)c3ccoc3cc2o1	–	–	EC50 (Kv1.5; cells printed in μM): 5 µM
O=c1ccc2c(OCCCCOc3ccc4ccccc4c3)c3ccoc3cc2o1 [AS118]	2.1	0.08 ± 0.01	nH (Kv1.5) (Kv1.5): 2.0
O=c1ccc2c(OCCCCOc3ccc(Oc4ccccc4)cc3)c3ccoc3cc2o1 [AS85, 4-(4-[4-Phenoxyphenoxy]butoxy)-7H-furo[3,2-g][1]benzopyran-7-on]	–	0.75	selectivity for Kv1.3 channels over Kv1.5 channels (Kv1.3): selective for Kv1.3 channels over Kv1.5 channels
O=c1ccc2c(OCCCOc3ccc(Cl)cc3)c3ccoc3cc2o1 [AS132, 4-[3-(4-Chlorphenoxy)propoxy]-7H-furo[3,2-g][1]benzopyran-7-on]	–	–	nH (Kv1.3) (Kv1.3; listed as drawing 81): 2.0; nH (Kv1.5) (Kv1.5): 2.0; EC50 (Kv1.5; cells unit inferred): 0.025 ± 0.002 µM
O=c1ccc2c(OCCCCOc3cccc4ccccc34)c3ccoc3cc2o1 [AS111]	2.0	0.05 ± 0.005	nH (Kv1.5) (Kv1.5): 2.0
COc1cc([N+](=O)[O-])ccc1OCCCCOc1c2ccoc2cc2oc(=O)ccc12	–	0.476 ± 0.02	–
C=C1C[C@@]2(O)[C@@H]3CC[C@@]4(C)[C@@H]5C=CC(=O)OC[C@]5(C(C)OC(C)=O)[C@@H](OC(C)=O)[C@@H](OC(C)=O)[C@@H]4[C@@]3(C)[C@H](OC(C)=O)[C@H](OC(C)=O)[C@@]2(C)C2(C(=O)OC)O[C@H]12 (some centres unmarked) [correolide]	–	–	suppression of the primary DTH response [1]: effectively suppress; suppression of the secondary DTH response [1]: much less effective
4-[3-(4-Ethylphenoxy)propoxy]-7H-furo[3,2-g][1]benzopyran-7-on [AS123]	1.7	–	EC50 (Kv1.3): 30 ± 2 nM; nH (Kv1.5) (Kv1.5): 2.0; EC50 (Kv1.5; cells unit inferred): 0.068 ± 0.003 µM
N#CCCCOc1c2ccoc2cc2oc(=O)ccc12	–	–	EC50 (Kv1.5; cells printed in μM): 12 µM
COc1ccc2sc(SCCCCOc3c4ccoc4cc4oc(=O)ccc34)nc2c1	–	0.1	–
COc1cc(OC)cc(OCCCOc2c3ccoc3cc3oc(=O)ccc23)c1 [AS104, 4-[3-(3,5-Dimethoxyphenoxy)propoxy]-7H-furo[3,2-g][1]benzopyran-7-on]	2.2	–	–
O=c1ccc2c(OCCCCOc3ccccc3)c3ccoc3cc2o1 [PAP 1, 4-(4-Phenoxybutoxy)-7H-furo[3,2-g][1]benzopyran-7-on]	1.8	0.045 ± 0.003	EC50 (IKCa1): 10000 ± 1000 nM; EC50 (Kv1.7): 98 ± 5 nM; EC50 (BK): 1500 ± 700 nM; EC50 (Kv1.4): 75 ± 5 nM; nH (Kv1.5) (Kv1.5): 2.3; EC50 (Kv1.1): 65 ± 8 nM

Compound	nH (Kv1.3) (Kv1.3)	EC50 (Kv1.5) [µM]	further results
COc1ccc(OCCCCOc2c3ccoc3cc3oc(=O)ccc23)cc1 [AS67, 4-(4-[4-Methoxyphenoxy]butoxy)-7H-furo[3,2-g][1]benzopyran-7-on]	2.1	0.01 ± 0.001	–
O=c1ccc2c(OCCCOCc3ccccc3)c3ccoc3cc2o1	–	0.17 ± 0.02	–
O=c1ccc2c(OCCCCOCc3ccccc3)c3ccoc3cc2o1	–	0.75 ± 0.04	–
O=c1ccc2c(OCCCCSc3ncccn3)c3ccoc3cc2o1	–	0.159 ± 0.007	–
O=c1ccc2c(OCCCOc3ccccc3)c3ccoc3cc2o1 [PAP 3, 4-(3-Phenoxypropoxy)-7H-furo[3,2-g][1]benzopyran-7-on]	–	0.1 ± 0.008	EC50 (Kv1.4): ~500 nM; EC50 (Kv1.1): 80 ± 10 nM
COc1cc(OC)cc(OCCCCOc2c3ccoc3cc3oc(=O)ccc23)c1 [AS69, 4-(4-[3,5-Dimethoxyphenoxy]butoxy)-7H-furo[3,2-g][1]benzopyran-7-on]	–	0.15 ± 0.02	–
Cc1nnc(SCCCCOc2c3ccoc3cc3oc(=O)ccc23)s1	–	–	EC50 (Kv1.5; cells printed in μM): 1 µM
4-[3-(1-Naphthyloxy)propoxy]-7H-furo[3,2-g][1]benzopyran-7-on [AS135]	2.1	–	EC50 (Kv1.3): 18 ± 1 nM
COc1cccc(OCCCCOc2c3ccoc3cc3oc(=O)ccc23)c1 [AS68, 4-(4-[3-Methoxyphenoxy]butoxy)-7H-furo[3,2-g][1]benzopyran-7-on]	–	0.045 ± 0.005	–
O=c1ccc2c(OCCCCNc3ccncc3)c3ccoc3cc2o1	–	–	EC50 (Kv1.5; cells printed in μM): 5 µM
4-[3-(3-Methoxyphenoxy)propoxy]-7H-furo[3,2-g][1]benzopyran-7-on [AS64]	2.05	–	EC50 (Kv1.3): 42 ± 3 nM
4-[3-(4-Methylphenoxy)propoxy]-7H-furo[3,2-g][1]benzopyran-7-on [AS127]	1.9	–	EC50 (Kv1.3): 25 ± 2 nM; nH (Kv1.5) (Kv1.5): 1.8; EC50 (Kv1.5; cells unit inferred): 0.25 ± 0.01 µM
Cc1ccc(OCCCCOc2c3ccoc3cc3oc(=O)ccc23)cc1 [AS96, 4-(4-[4-Methylphenoxy]butoxy)-7H-furo[3,2-g][1]benzopyran-7-on]	2.1	0.02	–
N#CCCCCOc1c2ccoc2cc2oc(=O)ccc12	–	–	EC50 (Kv1.5; cells printed in μM): 5 µM
O=c1ccc2c(OCCOCc3ccccc3)c3ccoc3cc2o1	–	0.11 ± 0.02	EC50 (Kv1.1): 175 ± 20 nM
O=c1ccc2c(OCCCCc3ccccc3)c3ccoc3cc2o1 [Psora-4]	–	–	inhibition of proliferation [2]: potently inhibited
N#CCCCOc1c2occc2cc2ccc(=O)oc12	–	–	EC50 (Kv1.5; cells printed in μM): 10 µM
O=c1ccc2c(OCCCCCOc3ccccc3)c3ccoc3cc2o1	2.1	–	–
N#CCCCCOc1c2occc2cc2ccc(=O)oc12	–	–	EC50 (Kv1.5; cells printed in μM): 10 µM
O=c1ccc2c(OCCCCOc3ccc(Cl)cc3)c3ccoc3cc2o1 [AS84, 4-(4-[4-Chlorphenoxy]butoxy)-7H-furo[3,2-g][1]benzopyran-7-on]	2.0	0.01	–
